Experimental data from patent US20230146455A1, “TREATMENT OF INFLAMMATORY DISEASES WITH PEPTIDES AND PHARMACEUTICAL COMPOSITIONS” (Yuyu Pharma, Inc., priority 2020, published 2023).
Values joined by “and” are separate entries in the source; they are usually repeats but may differ in a detail not shown here. Equal entries are not always repeated. Where a SMILES comes first, the peptide text is derived from it. [ ]: non-standard residue; d: D form. Hyp = O=C(O)[C@@H]1C[C@@H](O)CN1

Tested on: CCL2/MCP-1
Test: Example 8 main study Luminex, LPS hPBMCs: CCL2/MCP-1
Format: cell-based, human
Conditions: for CCL2/MCP-1 Concentration: single replicates; for LPS-induced CCL-2 (in words): at as low as 5 μM, LPS 5 ug/mL 24 hrs
Protocol: Human PBMCs were pretreated with YY-101, YDE-011, YDE-043 or reference compound; Xiidra® at various concentration (ranging from […] to 500 nM) for 2 h before stimulation. An equal volume of 0.5% DMSO was used as a vehicle control. Then, the cells were treated with LPS at 5 ug/ml, which was selected based on the pilot study. The supernatants from treated cells were harvested at 24 h and placed in a 96 well for Luminex cytokine & chemokine profiling using a Luminex 200 multiplex assay (Luminex; R&D system, USA).
The main study arm with triplicate wells per group in a 24-well plate: • 1. Blank • 2. PBMC: 0.5% DMSO • 3. PBMC+LPS (5 ug/ml) • 4. PBMC+YY-101 500 nM • 5. PBMC+YY-101 50 nM • 6. PBMC+YY-101 5 nM • 7. PBMC+YY-101 0.5 nM • 8. PBMC+LPS (5 ug/ml)+Xiidra® 500 nM • 9. PBMC+LPS (5 ug/ml)+Xiidra® 50 nM • 10. PBMC+LPS (5 ug/ml)+Xiidra® 5 nM • 11. PBMC+LPS (5 ug/ml)+Xiidra® 0.5 nM • 12. PBMC+LPS (5 ug/ml)+Xiidra® 0.05 nM • 13. PBMC+LPS (5 ug/ml)+Xiidra® 0.005 nM • 14. PBMC+LPS (5 ug/ml)+YY-101 500 nM • 15. PBMC+LPS (5 ug/ml)+YY-101 50 nM • 16. PBMC+LPS (5 ug/ml)+YY-101 5 nM • 17. PBMC+LPS (5 ug/ml)+YY-101 0.5 nM • 18. PBMC+LPS (5 ug/ml)+YY-101 0.05 nM • 19. PBMC+LPS (5 ug/ml)+YY-101 0.005 nM • 20. PBMC+LPS (5 ug/ml)+YDE-011 500 nM • 21. PBMC+LPS (5 ug/ml)+YDE-011 50 nM • 22. PBMC+LPS (5 ug/ml)+YDE-011 5 nM • 23. PBMC+LPS (5 ug/ml)+YDE-011 0.5 nM • 24. PBMC+LPS (5 ug/ml)+YDE-011 0.05 nM • 25. PBMC+LPS (5 ug/ml)+YDE-011 0.005 nM • 26. PBMC+LPS (5 ug/ml)+YDE-043 500 nM • 27. PBMC+LPS (5 ug/ml)+YDE-043 50 nM • 28. PBMC+LPS (5 ug/ml)+YDE-043 5 nM • 29. PBMC+LPS (5 ug/ml)+YDE-043 0.5 nM • 30. PBMC+LPS (5 ug/ml)+YDE-043 0.05 nM • 31. PBMC+LPS (5 ug/ml)+YDE-043 0.005 nM
Multiplex assay was used to measure 30 cytokines and chemokines. The 1:200 diluted cell supernatant and serial dilution of the standard were dispensed into a 96 well plate at 50 ul/well. Then, the pre-mixed cocktail of antibody-coated magnetic beads was dispensed at 50 ul/well and incubated at room temperature for 2 h in a horizontal orbital microplate shaker at 800±500 rpm. The beads were washed using a magnetic device to prevent loss. The biotin-antibody was dispensed in 50 ul of each well and incubated at room temperature for 1 h in a shaker at 800±500 rpm. After washing, streptavidin-PE was added at 50 ul/well and incubated at room temperature for 30 min in a shaker under the same conditions. Finally, after washing, wash buffer (100 ul/well) was added to the plate and incubated in a shaker for 2 min. The Luminex™ 200 setting were set according to the manufacturer's protocol. The data was calculated with a standard five-parameter logistic nonlinear regression analysis of the data (xPonent software 4.2, USA). Results were presented as concentration (ng/ml or pg/ml).

[1] = PBMC + LPS(5 ug/ml) + YY101 0.005 nM
[2] = PBMC + LPS(5 ug/ml) + YY101 0.05 nM
[3] = PBMC + LPS(5 ug/ml) + YY101 0.5 nM
[4] = PBMC + LPS(5 ug/ml) + YY101 5 nM
[5] = PBMC + LPS(5 ug/ml) + YY101 50 nM
[6] = PBMC + LPS(5 ug/ml) + YY101 500 nM
[7] = PBMC + LPS(5 ug/ml) + YDE011 0.005 nM
[8] = PBMC + LPS(5 ug/ml) + YDE011 0.05 nM
[9] = PBMC + LPS(5 ug/ml) + YDE011 0.5 nM
[10] = PBMC + LPS(5 ug/ml) + YDE011 5 nM
[11] = PBMC + LPS(5 ug/ml) + YDE011 50 nM
[12] = PBMC + LPS(5 ug/ml) + YDE011 500 nM
[13] = PBMC + LPS(5 ug/ml) + YDE043 0.005 nM
[14] = PBMC + LPS(5 ug/ml) + YDE043 0.05 nM
[15] = PBMC + LPS(5 ug/ml) + YDE043 0.5 nM
[16] = PBMC + LPS(5 ug/ml) + YDE043 5 nM
[17] = PBMC + LPS(5 ug/ml) + YDE043 50 nM
[18] = PBMC + LPS(5 ug/ml) + YDE043 500 nM

`CC(C)C[C@H](NC(=O)CNC(=O)[C@H](CC(=O)O)NC(=O)[C@H](CCC(N)=O)NC(=O)CNC(=O)[C@@H]1C[C@@H](O)CN1)C(=O)N[C@@H](C)C(=O)NCC(=O)N1CCC[C@H]1C(=O)N[C@@H](CCCCN)C(=O)O` [YY-101] (H-[Hyp]GQDGLAGPK-OH; N-terminus and C-terminus assumed) was tested, and the “CCL2/MCP-1 Concentration, Mean” value [1] was 4528.1 pg/mL, the “CCL2/MCP-1 Concentration” value [1] was 4528.4 pg/mL and 4630.2 pg/mL and 4425.5 pg/mL and the “CCL2/MCP-1 Concentration, Mean” value [2] was 4596.0 pg/mL. The “CCL2/MCP-1 Concentration” value [2] was 4528.4 pg/ml (2×) and 4731.0 pg/ml, the “CCL2/MCP-1 Concentration, Mean” value [3] was 4596.3 pg/mL and the “CCL2/MCP-1 Concentration” value [3] was 4630.2 pg/ml (2×) and 4528.4 pg/ml. The “CCL2/MCP-1 Concentration, Mean” value [4] was 4629.9 pg/mL, the “CCL2/MCP-1 Concentration” value [4] was 4630.2 pg/mL and 4528.4 pg/mL and 4731.0 pg/mL and the “CCL2/MCP-1 Concentration, Mean” value [5] was 4613.3 pg/mL. The “CCL2/MCP-1 Concentration” value [5] was 4579.5 pg/ml and 4630.2 pg/ml (2×), the “CCL2/MCP-1 Concentration, Mean” value [6] was 4459.8 pg/mL and the “CCL2/MCP-1 Concentration” value [6] was 4425.5 pg/ml (2×) and 4528.4 pg/ml. For the same molecule, the “CCL2/MCP-1 Concentration, Mean” value (PBMC + YY101 0.5 nM, no LPS) was 4679.6 pg/mL, the “CCL2/MCP-1 Concentration” value (PBMC + YY101 0.5 nM, no LPS) was 4528.4 pg/mL and 4830.8 pg/mL and the “CCL2/MCP-1 Concentration, Mean” value (PBMC + YY101 5 nM, no LPS) was 4425.5 pg/mL. The “CCL2/MCP-1 Concentration” value (PBMC + YY101 5 nM, no LPS) was 4425.5 pg/mL, the “CCL2/MCP-1 Concentration, Mean” value (PBMC + YY101 0.05 uM, no LPS) was 5025.5 pg/mL and the “CCL2/MCP-1 Concentration” value (PBMC + YY101 0.05 uM, no LPS) was 5782.0 pg/mL and 4269.1 pg/mL. The “CCL2/MCP-1 Concentration, Mean” value (PBMC + YY101 50 nM, no LPS) was 4373.5 pg/mL, the “CCL2/MCP-1 Concentration” value (PBMC + YY101 50 nM, no LPS) was 4321.5 pg/mL and 4425.5 pg/mL and the “CCL2/MCP-1 Concentration, Mean” value (PBMC + YY101 500 nM, no LPS) was 4475.9 pg/mL. The “CCL2/MCP-1 Concentration” value (PBMC + YY101 500 nM, no LPS) was 4321.5 pg/mL and 4630.2 pg/mL and the “LPS-induced CCL-2 (in words)” value was “significantly reduced”.
With `CC(C)C[C@H](NC(=O)CNC(=O)[C@H](CC(C)C)NC(=O)[C@H](CCC(N)=O)NC(=O)CNC(=O)[C@@H]1C[C@@H](O)CN1)C(=O)N[C@@H](C)C(=O)NCC(=O)N1CCC[C@H]1C(=O)N[C@@H](CCCCN)C(=O)O` [YDE-011] (H-[Hyp]GQLGLAGPK-OH) the “CCL2/MCP-1 Concentration, Mean” value [7] was 4425.2 pg/mL, the “CCL2/MCP-1 Concentration” value [7] was 4425.5 pg/mL and 4528.4 pg/mL and 4321.5 pg/mL and the “CCL2/MCP-1 Concentration, Mean” value [8] was 4442.7 pg/mL. For the same molecule, the “CCL2/MCP-1 Concentration” value [8] was 4425.5 pg/ml (2×) and 4477.1 pg/ml, the “CCL2/MCP-1 Concentration, Mean” value [9] was 4303.7 pg/mL and the “CCL2/MCP-1 Concentration” value [9] was 4425.5 pg/mL and 4269.1 pg/mL and 4216.3 pg/mL. The “CCL2/MCP-1 Concentration, Mean” value [10] was 4178.7 pg/mL, the “CCL2/MCP-1 Concentration” value [10] was 3893.1 pg/ml and 4321.5 pg/ml (2×) and the “CCL2/MCP-1 Concentration, Mean” value [11] was 4173.5 pg/mL. The “CCL2/MCP-1 Concentration” value [11] was 4528.4 pg/mL and 3670.6 pg/mL and 4321.5 pg/mL, the “CCL2/MCP-1 Concentration, Mean” value [12] was 4170.5 pg/mL and the “CCL2/MCP-1 Concentration” value [12] was 4731.0 pg/mL and 3670.6 pg/mL and 4109.9 pg/mL. For the same molecule, the “LPS-induced CCL-2 (in words)” value was “significantly reduced”.
For `CC(C)C[C@H](NC(=O)[C@H](CCC(N)=O)NC(=O)CNC(=O)[C@@H]1C[C@@H](O)CN1)C(=O)NCC(=O)O` [YDE-043] (H-[Hyp]GQLG-OH; N-terminus and C-terminus assumed), the “CCL2/MCP-1 Concentration, Mean” value [13] was 4629.2 pg/mL, the “CCL2/MCP-1 Concentration” value [13] was 4425.5 pg/ml and 4731.0 pg/ml (2×) and the “CCL2/MCP-1 Concentration, Mean” value [14] was 4545.3 pg/mL. The “CCL2/MCP-1 Concentration” value [14] was 4528.4 pg/mL and 4477.1 pg/mL and 4630.2 pg/mL, the “CCL2/MCP-1 Concentration, Mean” value [15] was 4390.9 pg/mL and the “CCL2/MCP-1 Concentration” value [15] was 4425.5 pg/ml (2×) and 4321.5 pg/ml. The “CCL2/MCP-1 Concentration, Mean” value [16] was 4562.3 pg/mL, the “CCL2/MCP-1 Concentration” value [16] was 4579.5 pg/mL and 4477.1 pg/mL and 4630.2 pg/mL and the “CCL2/MCP-1 Concentration, Mean” value [17] was 4578.9 pg/mL. For the same molecule, the “CCL2/MCP-1 Concentration” value [17] was 4528.4 pg/mL and 4731.0 pg/mL and 4477.1 pg/mL, the “CCL2/MCP-1 Concentration, Mean” value [18] was 4630.2 pg/mL and the “CCL2/MCP-1 Concentration” value [18] was 4630.2 pg/mL. The “LPS-induced CCL-2 (in words)” value was “significantly reduced”.
